Measured values taken from patent publication US8568736B2, “Polypeptide derivatives of parathyroid hormone (PTH)” (The General Hospital Corporation, priority 1999, dated 2013).
No end group written: not given here.

Key:
PTH-1 receptor [1] = molecular target: T1, PTH-1 receptor (Homo sapiens, UniProt Q03431); test: cAMP stimulation in HKRK-B7 cells (LLC-PK1 stably transfected with hPTH-1 receptor); type: cell-based; parameters: expressed in transfected cells; host or cells: LLC-PK1 porcine kidney cells, clone HKRK-B7; conditions: for cAMP signaling activity (in words) / Emax: HKRK-B7 cells; for cAMP signaling activity (in words): dose-response; for Emax: Emax constrained to ±1 SD of rPTH(1-34) response at 100 nM
T1 sequence (Q03431 27-593): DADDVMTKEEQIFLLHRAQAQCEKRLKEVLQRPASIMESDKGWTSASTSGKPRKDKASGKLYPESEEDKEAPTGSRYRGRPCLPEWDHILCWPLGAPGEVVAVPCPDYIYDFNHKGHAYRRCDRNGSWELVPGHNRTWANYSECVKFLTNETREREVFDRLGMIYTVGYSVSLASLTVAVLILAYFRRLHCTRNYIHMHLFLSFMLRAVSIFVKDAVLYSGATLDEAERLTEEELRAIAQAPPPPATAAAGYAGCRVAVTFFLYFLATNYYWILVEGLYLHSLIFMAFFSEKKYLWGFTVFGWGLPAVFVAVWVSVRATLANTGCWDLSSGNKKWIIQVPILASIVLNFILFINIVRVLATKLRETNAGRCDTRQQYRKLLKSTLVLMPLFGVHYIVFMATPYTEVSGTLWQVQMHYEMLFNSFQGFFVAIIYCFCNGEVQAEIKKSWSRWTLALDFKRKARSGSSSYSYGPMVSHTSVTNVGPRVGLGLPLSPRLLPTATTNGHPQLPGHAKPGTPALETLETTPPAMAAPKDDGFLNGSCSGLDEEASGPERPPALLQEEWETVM
Text: (§1) Stably transfected derivatives of the porcine kidney cell line LLC-PK1, HKRK-B7 (Takasu, H., et al., J. Bone Miner. Res. 14:11-20 (1999)) and hPR2-20, express the human PTH-1 and human PTH-2 receptors respectively. The HKRK-B7 LLC-PK1 cell line expresses the hPTH-1 receptor at ˜1×10^6 receptors/cell (Takasu, H., et al., J. Bone Miner. Res. 14:11-20 (1999)), and the hPR2-22 LLC-PK1 cell line expresses the hPTH-2 receptor at ˜0.8×10^6 receptors/cell (provided by H. Takasu and F. R. Bringhurst, Endocrine Unit, Massachusetts General Hospital).
(§2) Stimulation of cells with peptide analogs was performed in 24-well plates. Cells were rinsed with 0.5 mL of binding buffer and treated with 200 μL of cAMP assay buffer (Dulbecco's modified Eagle's medium containing 2 mM 3-isobutyl-1-methylxanthine, 1 mg/mL bovine serum albumin, 35 mM Hepes-NaOH, pH 7.4) and 100 μL of binding buffer containing varying amounts of peptide analog (final volume=300 μL). The medium was removed after incubation for 1 h at room temperature, and the cells were frozen (−80° C.), lysed with 0.5 mL 50 mM HCl, and refrozen (−80° C.). The cAMP content of the diluted lysate was determined by radioimmunoassay. Where possible, cAMP EC50 and Maximum response values were determined using nonlinear regression (see below).
(§3) Intracellular cAMP accumulation may be measured as described by Abou-Samra et al., J. Biol. Chem. 262:1129, 1986) or other methods known to those of skill in the art. Intracellular cAMP is extracted by thawing the cells in 1 ml of 50 mM HCl and analyzed by a specific radioimmunoassay using an anti-cAMP antibody (e.g., Sigma, St. Louis, Mo.). A cAMP analog (2′-O-monosuccinyl-adenosine 3′:5′-cyclic monophosphate tyrosyl methyl ester, obtained from Sigma) which is used as a tracer for cAMP is iodinated by the chloramine T method. Free iodine is removed by adsorbing the iodinated cAMP analog onto a C18 Sep-pak cartridge (Waters, Milford, Mass.). After washing with dH2O, the iodinated cAMP analog is eluted from the Sep-pak Cartridge with 40% acetonitrille (ACN) and 0.1% trifluoroacetic acid (TFA). The iodinated cAMP analog is lyophilized, reconstituted in 1 ml 0.1% TFA, and injected into a C18 reverse phase HPLC column (Waters). The column is equilibrated with 10% ACN in 0.1% TFA, and eluted with gradient of 10-30% ACN in 0.1% TFA. This allows separation of the mono-iodinated cAMP analog from the non-iodinated cAMP analog. The tracer is stable for up to 4 months when stored at −20° C. The standard used for the assay, adenosine 3′:5′-cyclic monophosphate, is purchased from Sigma. Samples (1-10 µl of HCl extracts) or standards (0.04-100 fmol/tube) are diluted in 50 mM Na-acetate (pH 5.5), and acetylated with 10 μl of mixture of triethylamine and acetic anhydride (2:1 vol:vol). After acetylation, cAMP antiserum (100 μl) is added from a stock solution (1:4000) made in PBS (pH 7.4), 5 mM EDTA and 1% normal rabbit serum. The tracer is diluted in PBS (pH 7.4) with 0.1% BSA, and added (20,000 cpm/tube). The assay is incubated at 4° C. overnight. The bound tracer is precipitated by adding 100 μl of goat anti-rabbit antiserum (1:20 in PBS) and 1 ml of 7% polyethyleneglycol (MW 5000-6000), centrifuging at 2000 rpm for 30 min. at 4° C. The supernatant is removed and the bound radioactivity is counted in a gamma-counter (Micromedic). To compute the cAMP data, logit calculations were performed in Excel spreadsheets. Typically, the assay sensitivity is 0.1 fmol/tube, and the standard concentration that displaces 50% of tracer is 5 fmol/tube.
(§4) All calculations were performed using Microsoft Excel. Nonlinear regression analysis of cAMP stimulation data was performed using parameters, defined as the Minimum, Maximum, Emax, midpoint (EC50), and slope of the response curve. The predicted response (yp) for a given dose (x) of peptide was calculated using the following equation: yp=Min+[(Max−Min)/(1+(EC50/x)^slope)]. […]

hPTH-2 Receptor = molecular target: T2, hPTH-2 Receptor (Homo sapiens, UniProt P49190); test: cAMP stimulation in LLC-P2R-22 cells (LLC-PK1 stably transfected with hPTH-2 receptor); type: cell-based; conditions: LLC-P2R-22 cells (hPTH-2 Receptor)
T2 construct: expressed in transfected cells; host or cells: LLC-PK1 porcine kidney cells (clone given as hPR2-20, hPR2-22, LLC-P2R-22 or P2R-22)
T2 sequence (P49190 25-550): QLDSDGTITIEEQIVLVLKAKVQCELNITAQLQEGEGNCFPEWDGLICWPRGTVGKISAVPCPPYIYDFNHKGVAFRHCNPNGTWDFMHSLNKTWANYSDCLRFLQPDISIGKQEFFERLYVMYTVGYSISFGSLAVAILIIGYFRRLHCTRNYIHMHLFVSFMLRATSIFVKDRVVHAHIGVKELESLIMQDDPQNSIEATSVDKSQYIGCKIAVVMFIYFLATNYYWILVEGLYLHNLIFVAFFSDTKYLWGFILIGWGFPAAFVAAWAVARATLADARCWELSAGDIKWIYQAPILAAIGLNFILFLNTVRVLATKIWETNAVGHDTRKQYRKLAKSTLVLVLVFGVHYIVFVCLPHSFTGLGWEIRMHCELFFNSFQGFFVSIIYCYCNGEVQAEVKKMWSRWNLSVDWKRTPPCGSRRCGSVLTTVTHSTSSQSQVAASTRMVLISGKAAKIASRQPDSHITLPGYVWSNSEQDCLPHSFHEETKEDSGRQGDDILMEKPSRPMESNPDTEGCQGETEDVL
Text: as §1, §2, §3, §4

[2] = molecular target: T3, rat PTH-1 receptor (endogenous, ROS 17/2.8 cells) (Rattus norvegicus, UniProt P25961); test: cAMP response in osteoblastic ROS 17/2.8 cells; type: cell-based; conditions: ROS 17/2.8 cells
T3 construct: The rat osteoblastic cell line ROS 17/2.8; endogenous in cells; host or cells: ROS 17/2.8 rat osteoblastic cells
T3 sequence (P25961 27-591): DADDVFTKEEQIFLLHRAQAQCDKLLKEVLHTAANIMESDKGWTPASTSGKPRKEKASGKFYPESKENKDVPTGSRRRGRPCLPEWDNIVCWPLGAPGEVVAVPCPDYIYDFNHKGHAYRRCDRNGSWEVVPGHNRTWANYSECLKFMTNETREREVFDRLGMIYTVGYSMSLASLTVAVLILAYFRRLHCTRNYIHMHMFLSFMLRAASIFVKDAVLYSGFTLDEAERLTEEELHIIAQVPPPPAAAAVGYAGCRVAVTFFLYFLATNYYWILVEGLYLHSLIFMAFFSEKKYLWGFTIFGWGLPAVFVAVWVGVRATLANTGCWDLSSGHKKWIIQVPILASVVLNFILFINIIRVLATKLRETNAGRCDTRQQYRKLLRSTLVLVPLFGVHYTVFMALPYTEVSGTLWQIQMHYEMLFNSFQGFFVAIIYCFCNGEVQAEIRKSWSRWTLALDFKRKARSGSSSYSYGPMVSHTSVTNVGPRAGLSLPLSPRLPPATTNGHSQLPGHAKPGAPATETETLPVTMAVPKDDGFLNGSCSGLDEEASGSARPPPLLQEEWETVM
Description: The rat osteoblastic cell line ROS 17/2.8 (Majeska, R. J., et al, Endocrinology 107:1494-1503 (1980)) expresses endogenous PTH-1 receptors at levels of 80,000 per cell and the human osteoblastic cell line, SAOS-2, express endogenous PTH-1 receptors at levels of ˜30,000 per cell.
as §2
All calculations were performed using Microsoft Excel. Nonlinear regression analysis of cAMP stimulation data was performed using parameters, defined as the Minimum, Maximum, Emax, midpoint (EC50), and slope of the response curve. The predicted response (yp) for a given dose (x) of peptide was calculated using the following equation: yp=Min+[(Max−Min)/(1+(EC50/x)^slope)]. The initial parameter values were estimated from the primary data, and the Excel “Solver function” was then used to vary the four parameters in order to minimize the differences between the predicted and actual responses (least-squares method) (Bowen, W., & Jerman, J., Trends in Pharmacol. Sci. 16:413-417 (1995)). The statistical significance between two data sets was determined using a one-tailed Student's t-test, assuming unequal variances for the two sets.

PTH-1 receptor [3] = molecular target: T1, PTH-1 receptor; parameters: expressed in transfected cells; host or cells: LLC-PK1 porcine kidney cells, clone HKRK-B7; conditions: HKRK-B7 cells; Luck et al. 1999; cited from earlier work
[4] = tested on: truncated PTH-1 receptor rP1R-ΔNt; conditions: truncated rat PTH receptor vs intact rPTH-1 receptor; Luck et al. 1999; cited from earlier work
[5] = subcutaneous, in combination with oral estrogen, postmenopausal osteoporosis; cited from earlier work
PTH-1 receptor [6] = molecular target: T1, PTH-1 receptor; conditions: literature; cited from earlier work
[7] = molecular target: T4, cloned rat PTH-1 receptor (Rattus norvegicus, UniProt P25961); conditions: CHO cells, Azurani 1996; cited from earlier work
T4 construct: host or cells: CHO cells
T4 sequence (P25961 27-591): T3 sequence (P25961 27-591)

rat renal membranes = conditions: Rosenblatt 1981; cited from earlier work

## AVAEIQLMHARA-NH2 [compound 5, AlaValAlaGluIleGlnLeuMetHisAlaArgAla-amide]
PTH-1 receptor [1]
  cAMP signaling activity (in words): signaling activity was readily observed
  Emax: 238 ± 9 picomole/well
hPTH-2 Receptor
  Emax: 501 picomole/well

## AVAEIQLMHARAK-NH2 [compound 4, AlaValAlaGluIleGlnLeuMetHisAlaArgAlaLys-amide]
PTH-1 receptor [1]
  cAMP signaling activity (in words): signaling activity was readily observed
  Emax: 239 ± 7 picomole/well
hPTH-2 Receptor
  Emax: 501 picomole/well

## AVAEIQLMHARAKW-NH2 [Peptide #2, AlaValAlaGluIleGlnLeuMetHisAlaArgAlaLysTrp-amide]
[2]
  Emax: 382 picomole/well
PTH-1 receptor [1]
  Emax: 262 ± 9 picomole/well
PTH-1 receptor [1]; LLC-PK1 cells stably expressing hPTH-1 receptor, cAMP
  fold more potent than native PTH(1-14): 220 fold

## AVAEIQLMHQRAKH-NH2 [compound 3, AlaValAlaGluIleGlnLeuMetHisGlnArgAlaLysHis-amide]
PTH-1 receptor [1]
  Emax: 235 ± 3 picomole/well

## PTH(1-9) (AVSEIQLMH-NH2; UniProt P04089 32-40, looked up, fragment) [native rat PTH fragment analog]
PTH-1 receptor [3]
  cAMP response of native rat PTH fragments (in words): little or no cAMP response

## PTH(1-10) (AVSEIQLMHN-NH2; UniProt P04089 32-41, looked up, fragment) [native rat PTH fragment analog]
PTH-1 receptor [3]
  cAMP response of native rat PTH fragments (in words): little or no cAMP response

## PTH(1-11) (AVSEIQLMHNL-NH2; UniProt P04089 32-42, looked up, fragment) [native rat PTH fragment analog]
PTH-1 receptor [3]
  cAMP response of native rat PTH fragments (in words): little or no cAMP response

## PTH(1-12) (AVSEIQLMHNLG-NH2; UniProt P04089 32-43, looked up, fragment) [native rat PTH fragment analog]
PTH-1 receptor [3]
  cAMP response of native rat PTH fragments (in words): little or no cAMP response

## PTH(1-13) (AVSEIQLMHNLGK-NH2; UniProt P04089 32-44, looked up, fragment) [native rat PTH fragment analog]
PTH-1 receptor [3]
  cAMP response of native rat PTH fragments (in words): little or no cAMP response

## PTH(1-34)
[4]
  fold weaker with the truncated receptor than with the intact receptor: 1000 fold
[5]
  bone density: increases in bone density

## PTH(15-34)
PTH-1 receptor [6]
  cAMP response: inactive

## PTHrP(1-16) (AVSEHQLLHDKGKSIQ; Parathyroid hormone-related protein; UniProt P12272 37-52, looked up, fragment) [short NH2-terminal PTHrP peptide from the literature]
[7]
  AC activity: inactive

## [A3,Q10]rPTH(1-10) (AVAEIQLMHQ-NH2)
PTH-1 receptor [1]
  cAMP signaling activity (in words): elicited some activity

## bPTH(1-12) (AVSEIQFMHNLG; Parathyroid hormone; UniProt P01268 32-43, looked up, fragment) [short NH2-terminal PTH peptide from the literature]
Rat renal membranes
  adenyl cyclase activity: inactive
